Test results published in PubChem BioAssay AID1963958 (Molecular Pharmacology Branch, DTP, NCI, 2024).

Test system: MDA-MB-231 multicell spheroids, viability
Experiment: Anticancer human tumor MDA-MB-231 cell line growth inhibition [PI3K];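 further: spheroids exposed to agents for seven days before reading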;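 on viability, T/C: percent of vehicle control luminescence with DMSO treated spheroids as 100%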
Settings: for IC50: curve of first compound; for viability, T/C: stronger effect = lower value; active means viability on the fitted dose curve at most 10% of control; inactive means the rest
Summary of the method: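 Stroma-containing spheroids: tumor line, pooled-donor HUVEC, hMSC. Treatments: targeted agents with PI3K inhibitors. Dosing: clinically relevant, half-log spacing, 10 microM ceiling without known Cmax. Read-out: cell viability.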

[1] = second compound 0.0316 µM, first compound 0.0316 µM
[2] = second compound 0.0316 µM, first compound 0.1 µM
[3] = second compound 0.0316 µM, first compound 0.316 µM
[4] = second compound 0.0316 µM, first compound 1 µM
[5] = second compound 0.0316 µM, first compound 3.16 µM
[6] = second compound 0.0316 µM, first compound 10 µM
[7] = second compound 0.1 µM, first compound 0.0316 µM
[8] = second compound 0.1 µM, first compound 0.1 µM
[9] = second compound 0.1 µM, first compound 0.316 µM
[10] = second compound 0.1 µM, first compound 1 µM
[11] = second compound 0.1 µM, first compound 3.16 µM
[12] = second compound 0.1 µM, first compound 10 µM
[13] = second compound 0.316 µM, first compound 0.0316 µM
[14] = second compound 0.316 µM, first compound 0.1 µM
[15] = second compound 0.316 µM, first compound 0.316 µM
[16] = second compound 0.316 µM, first compound 1 µM
[17] = second compound 0.316 µM, first compound 3.16 µM
[18] = second compound 0.316 µM, first compound 10 µM
[19] = second compound 1 µM, first compound 0.0316 µM
[20] = second compound 1 µM, first compound 0.1 µM
[21] = second compound 1 µM, first compound 0.316 µM
[22] = second compound 1 µM, first compound 1 µM
[23] = second compound 1 µM, first compound 3.16 µM
[24] = second compound 1 µM, first compound 10 µM
[25] = second compound 3.16 µM, first compound 0.0316 µM
[26] = second compound 3.16 µM, first compound 0.1 µM
[27] = second compound 3.16 µM, first compound 0.316 µM
[28] = second compound 3.16 µM, first compound 1 µM
[29] = second compound 3.16 µM, first compound 3.16 µM
[30] = second compound 3.16 µM, first compound 10 µM
[31] = second compound 10 µM, first compound 0.0316 µM
[32] = second compound 10 µM, first compound 0.1 µM
[33] = second compound 10 µM, first compound 0.316 µM
[34] = second compound 10 µM, first compound 1 µM
[35] = second compound 10 µM, first compound 3.16 µM
[36] = second compound 10 µM, first compound 10 µM

CC(Cn1ccc(-c2ccc(C#N)c(Cl)c2)n1)NC(=O)c1cc(C(C)O)[nH]n1 (stereo unspecified) + Cc1nc(NC(=O)N2CCCC2C(N)=O)sc1-c1ccnc(C(C)(C)C(F)(F)F)c1
inactive: viability, T/C [1] 92.9% | viability, T/C [2] 88.3% | viability, T/C [3] 98.9% | viability, T/C [4] 93.5% | viability, T/C [5] 86.4% | viability, T/C [6] 83.3% | viability, T/C [7] 86.8% | viability, T/C [8] 78.8% | viability, T/C [9] 87% | viability, T/C [10] 89.3% | viability, T/C [11] 86.2% | viability, T/C [12] 74.5% | viability, T/C [13] 73.2% | viability, T/C [14] 71.6% | viability, T/C [15] 77.4% | viability, T/C [16] 72.5% | viability, T/C [17] 68.2% | viability, T/C [18] 64.8% | viability, T/C [19] 68.6% | viability, T/C [20] 70.9% | viability, T/C [21] 67.1% | viability, T/C [22] 72.3% | viability, T/C [23] 66.6% | viability, T/C [24] 59.8% | viability, T/C [25] 68.4% | viability, T/C [26] 67.3% | viability, T/C [27] 68.7% | viability, T/C [28] 64.6% | viability, T/C [29] 61.9% | viability, T/C [30] 56.6% | viability, T/C [31] 68.3% | viability, T/C [32] 58% | viability, T/C [33] 60.3% | viability, T/C [34] 64.2% | viability, T/C [35] 62.8% | viability, T/C [36] 49.8%
> 10 µM: IC50 (second compound 0.0316 µM) | IC50 (second compound 0.1 µM) | IC50 (second compound 0.316 µM) | IC50 (second compound 1 µM) | IC50 (second compound 3.16 µM) | IC50 (second compound 10 µM)

Cn1ncc(Cl)c1-c1cc(C(=O)NC(CN)Cc2cccc(F)c2)sc1Cl (stereo unspecified) + Cc1nc(NC(=O)N2CCCC2C(N)=O)sc1-c1ccnc(C(C)(C)C(F)(F)F)c1
3.29 µM: IC50 (second compound 0.0316 µM)
1.8 µM: IC50 (second compound 3.16 µM)
1.9 µM: IC50 (second compound 0.316 µM) | IC50 (second compound 1 µM)
inactive: viability, T/C [1] 104% | viability, T/C [2] 89.2% | viability, T/C [3] 82.9% | viability, T/C [4] 71.8% | viability, T/C [5] 49.9% | viability, T/C [6] 28.8% | viability, T/C [7] 86.6% | viability, T/C [8] 83.3% | viability, T/C [9] 81% | viability, T/C [10] 66.2% | viability, T/C [11] 47.8% | viability, T/C [12] 24.4% | viability, T/C [13] 76% | viability, T/C [14] 80.8% | viability, T/C [15] 70.5% | viability, T/C [16] 64.8% | viability, T/C [17] 38.8% | viability, T/C [18] 25.1% | viability, T/C [19] 67.7% | viability, T/C [20] 72.3% | viability, T/C [21] 64.3% | viability, T/C [22] 57% | viability, T/C [23] 44.4% | viability, T/C [24] 24.5% | viability, T/C [25] 72.1% | viability, T/C [26] 66.6% | viability, T/C [27] 66.7% | viability, T/C [28] 57.6% | viability, T/C [29] 42.7% | viability, T/C [30] 26.6% | viability, T/C [31] 69% | viability, T/C [32] 62% | viability, T/C [33] 57.9% | viability, T/C [34] 60.4% | viability, T/C [35] 48% | viability, T/C [36] 23.5%
2.48 µM: IC50 (second compound 10 µM)
2.71 µM: IC50 (second compound 0.1 µM)

Cn1nccc1Nc1nccc(-c2ccn(C(CO)c3ccc(Cl)c(F)c3)c(=O)c2)n1 (stereo unspecified) + Cc1nc(NC(=O)N2CCCC2C(N)=O)sc1-c1ccnc(C(C)(C)C(F)(F)F)c1
0.61 µM: IC50 (second compound 0.0316 µM)
< 0.0316 µM: IC50 (second compound 10 µM)
inactive: viability, T/C [1] 75.6% | viability, T/C [2] 65% | viability, T/C [3] 56.1% | viability, T/C [4] 45.3% | viability, T/C [5] 36.5% | viability, T/C [6] 26% | viability, T/C [7] 66.2% | viability, T/C [8] 58.1% | viability, T/C [9] 54% | viability, T/C [10] 41.6% | viability, T/C [11] 35.7% | viability, T/C [12] 22.4% | viability, T/C [13] 62.2% | viability, T/C [14] 49.5% | viability, T/C [15] 46.7% | viability, T/C [16] 37.6% | viability, T/C [17] 29.3% | viability, T/C [18] 21.9% | viability, T/C [19] 56.6% | viability, T/C [20] 47.2% | viability, T/C [21] 43.6% | viability, T/C [22] 34.6% | viability, T/C [23] 25.1% | viability, T/C [24] 19.7% | viability, T/C [25] 53.8% | viability, T/C [26] 47.2% | viability, T/C [27] 37.8% | viability, T/C [28] 34.3% | viability, T/C [29] 24.2% | viability, T/C [30] 16.7% | viability, T/C [31] 43.2% | viability, T/C [32] 37.1% | viability, T/C [33] 33% | viability, T/C [34] 29.6% | viability, T/C [35] 21.9% | viability, T/C [36] 10.6%
0.151 µM: IC50 (second compound 0.316 µM)
0.0576 µM: IC50 (second compound 3.16 µM)
0.0881 µM: IC50 (second compound 1 µM)
0.423 µM: IC50 (second compound 0.1 µM)
